Experimental data as given in patent US20170050957A1, “4-AMINO-6-(HETEROCYCLIC)PICOLINATES AND 6-AMINO-2-(HETEROCYCLIC)PYRIMIDINE-4-CARBOXYLATES AND THEIR USE AS HERBICIDES” (Dow AgroSciences LLC, priority 2013, published 2017).
Where two headings read alike, the source gives them in different places.

What was measured:
[1] = system: Key Broadleaf Weed and Crop Species; experiment: Post-emergent Test II herbicidal activity (Table 15); assay type: in vivo; details: post-emergence, 336 h, 14 d; for pest or weed control at 35 g/ha: 35 g ai/ha; for pest or weed control at 70 g/ha: 70 g ai/ha; for pest or weed control at 140 g/ha: 140 g ai/ha
How it was run: (§1)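 Visual injury rating (0 = none, 100% = complete kill) made 14 d after treatment, relative to untreated plants. Compounds in an acetone/DMSO/aqueous crop-oil/surfactant spray, at top rate and serial 1/2×-1/16× rates, were applied at 187 L/ha overhead to first-second true leaf plants raised 7-21 d in greenhouse.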

[2] = system: Key Grass and Sedge Weeds as well as Grass Crops; experiment: Post-emergent Test II herbicidal activity (Table 16); assay type: in vivo; details: post-emergence, 336 h, 14 d; for pest or weed control at 35 g/ha: 35 g ai/ha; for pest or weed control at 70 g/ha: 70 g ai/ha; for pest or weed control at 140 g/ha: 140 g ai/ha
How it was run: as §1

[3] = Abutilon theophrasti, velvetleaf (Abutilon theophrasti), read-out: Visual Growth Reduction (%) 14 Days After Application, ABUTH
[4] = Amaranthus retroflexus, redroot pigweed (Amaranthus retroflexus), read-out: Visual Growth Reduction (%) 14 Days After Application, AMARE
[5] = Brassica napus, oilseed rape, canola (Brassica napus), read-out: Visual Growth Reduction (%) 14 Days After Application, BRSNN
[6] = Chenopodium album, lambsquarters (Chenopodium album), read-out: Visual Growth Reduction (%) 14 Days After Application, CHEAL
[7] = Euphorbia heterophylla, wild poinsettia (Euphorbia heterophylla), read-out: Visual Growth Reduction (%) 14 Days After Application, EPHHL
[8] = Helianthus annuus, sunflower (Helianthus annuus), read-out: Visual Growth Reduction (%) 14 Days After Application, HELAN
[9] = Cyperus esculentus, yellow nutsedge (Cyperus esculentus), read-out: Visual Growth Reduction (%) 14 Days After Application, CYPES
[10] = Echinochloa crus-galli, barnyardgrass (Echinochloa crus-galli), read-out: Visual Growth Reduction (%) 14 Days After Application, ECHCG
[11] = Oryza sativa, rice (Oryza sativa), read-out: Visual Growth Reduction (%) 14 Days After Application, ORYSA
[12] = Setaria faberi, giant foxtail (Setaria faberi), read-out: Visual Growth Reduction (%) 14 Days After Application, SETFA
[13] = Triticum aestivum, wheat, spring (Triticum aestivum), read-out: Visual Growth Reduction (%) 14 Days After Application, TRZAS
[14] = Zea mays, maize, corn (Zea mays), read-out: Visual Growth Reduction (%) 14 Days After Application, ZEAMX

Structure (SMILES) | pest or weed control at 35 g/ha [1, 3] [%] | pest or weed control at 70 g/ha [1, 3] [%] | pest or weed control at 140 g/ha [1, 3] [%] | pest or weed control at 140 g/ha [1, 4] [%] | pest or weed control at 35 g/ha [1, 5] [%] | pest or weed control at 70 g/ha [1, 5] [%] | pest or weed control at 140 g/ha [1, 5] [%] | pest or weed control at 35 g/ha [1, 6] [%] | pest or weed control at 70 g/ha [1, 6] [%] | pest or weed control at 140 g/ha [1, 6] [%] | pest or weed control at 35 g/ha [1, 7] [%] | pest or weed control at 70 g/ha [1, 7] [%] | pest or weed control at 140 g/ha [1, 7] [%] | pest or weed control at 35 g/ha [1, 8] [%] | pest or weed control at 70 g/ha [1, 8] [%] | pest or weed control at 140 g/ha [1, 8] [%] | pest or weed control at 35 g/ha [2, 9] [%] | pest or weed control at 70 g/ha [2, 9] [%] | pest or weed control at 140 g/ha [2, 9] [%] | pest or weed control at 35 g/ha [2, 10] [%] | also measured
COC(=O)c1nc(-c2ccc(Cl)c3[nH]ccc23)cc(N)c1Cl [Compound 1.44] | 0 to 29 | 75 to 84 | 85 to 94 | 95 to 100 | 0 to 29 | 0 to 29 | 30 to 44 | 85 to 94 | 85 to 94 | 95 to 100 | 45 to 59 | 75 to 84 | 85 to 94 | 0 to 29 | 0 to 29 | 0 to 29 | 0 to 29 | 0 to 29 | 0 to 29 | 0 to 29 | pest or weed control at 35 g/ha [1, 4]: 85 to 94%; pest or weed control at 70 g/ha [1, 4]: 95 to 100%; pest or weed control at 70 g/ha [2, 10]: 0 to 29%; pest or weed control at 140 g/ha [2, 10]: 0 to 29%; pest or weed control at 35 g/ha [2, 11]: 0 to 29%; pest or weed control at 70 g/ha [2, 11]: 0 to 29%; pest or weed control at 140 g/ha [2, 11]: 0 to 29%; pest or weed control at 35 g/ha [2, 12]: 0 to 29%; pest or weed control at 70 g/ha [2, 12]: 0 to 29%; pest or weed control at 140 g/ha [2, 12]: 0 to 29%; pest or weed control at 35 g/ha [2, 13]: 0 to 29%; pest or weed control at 70 g/ha [2, 13]: 0 to 29%; pest or weed control at 140 g/ha [2, 13]: 0 to 29%; pest or weed control at 35 g/ha [2, 14]: 0 to 29%; pest or weed control at 70 g/ha [2, 14]: 0 to 29%; pest or weed control at 140 g/ha [2, 14]: 0 to 29%; melting point: 116 °C
COC(=O)c1nc(-c2ccc3c(ccn3C)c2)c(F)c(N)c1Cl [Compound 1.03] | 0 to 29 | 0 to 29 | 75 to 84 | 85 to 94 | 0 to 29 | 0 to 29 | 0 to 29 | 85 to 94 | 85 to 94 | 95 to 100 | 95 to 100 | 95 to 100 | 85 to 94 | 0 to 29 | 0 to 29 | 45 to 59 | 0 to 29 | 0 to 29 | 0 to 29 | 0 to 29 | pest or weed control at 70 g/ha [2, 10]: 0 to 29%; pest or weed control at 140 g/ha [2, 10]: 60 to 74%; pest or weed control at 35 g/ha [2, 11]: 0 to 29%; pest or weed control at 70 g/ha [2, 11]: 0 to 29%; pest or weed control at 140 g/ha [2, 11]: 0 to 29%; pest or weed control at 35 g/ha [2, 12]: 0 to 29%; pest or weed control at 70 g/ha [2, 12]: 0 to 29%; pest or weed control at 140 g/ha [2, 12]: 0 to 29%; pest or weed control at 35 g/ha [2, 13]: 0 to 29%; pest or weed control at 70 g/ha [2, 13]: 0 to 29%; pest or weed control at 140 g/ha [2, 13]: 0 to 29%; pest or weed control at 35 g/ha [2, 14]: 0 to 29%; pest or weed control at 70 g/ha [2, 14]: 0 to 29%; pest or weed control at 140 g/ha [2, 14]: 0 to 29%; melting point: 125 to 127 °C
COC(=O)c1nc(-c2ccc3sccc3c2)c(C)c(N)c1Cl [Compound 3.06] | 45 to 59 | 60 to 74 | 85 to 94 | 95 to 100 | 30 to 44 | 30 to 44 | 45 to 59 | 30 to 44 | 60 to 74 | 60 to 74 | 0 to 29 | 0 to 29 | 30 to 44 | 95 to 100 | 95 to 100 | 95 to 100 | 0 to 29 | 0 to 29 | 0 to 29 | 0 to 29 | pest or weed control at 35 g/ha [1, 4]: 85 to 94%; pest or weed control at 70 g/ha [1, 4]: 85 to 94%; pest or weed control at 70 g/ha [2, 10]: 0 to 29%; pest or weed control at 140 g/ha [2, 10]: 0 to 29%; pest or weed control at 35 g/ha [2, 11]: 0 to 29%; pest or weed control at 70 g/ha [2, 11]: 0 to 29%; pest or weed control at 140 g/ha [2, 11]: 0 to 29%; pest or weed control at 35 g/ha [2, 12]: 0 to 29%; pest or weed control at 70 g/ha [2, 12]: 0 to 29%; pest or weed control at 140 g/ha [2, 12]: 0 to 29%; pest or weed control at 35 g/ha [2, 13]: 0 to 29%; pest or weed control at 70 g/ha [2, 13]: 0 to 29%; pest or weed control at 140 g/ha [2, 13]: 0 to 29%; pest or weed control at 35 g/ha [2, 14]: 0 to 29%; pest or weed control at 70 g/ha [2, 14]: 0 to 29%; pest or weed control at 140 g/ha [2, 14]: 0 to 29%; melting point: 155 to 159 °C
